Measurements as given in patent US20230072683A1, “PYRIDO-PYRIMIDIN DERIVATIVES AND PHARMACEUTICAL COMPOSITION, FOR USE IN PREVENTING OR TREATING PI3 KINASE RELATED DISEASES, COMPRISING SAME AS ACTIVE INGREDIENT” (BORYUNG PHARMACEUTICAL CO., LTD, priority 2019, published 2023).

Columns and labels:
[1] = target: PI3K-δ (PI3K(p1108/p857) (h)) (Homo sapiens, UniProt O00329); assay: Evaluation of inhibitory activity against PI3K-δ (HTRF kinase assay); assay type: biochemical; settings: for inhibition at 0.01 µM: compound concentration 0.01 μM, read-out: EXP_VALUE(% Inhibition) PI3K-δ 0.01 μM; for inhibition at 0.1 µM: compound concentration 0.1 μM, read-out: EXP_VALUE(% Inhibition) PI3K-δ 0.1 μM
Outline: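 HTRF read-out (665/620 nm ratio ×10000) used Eu-labelled anti-GST, GST-tagged GRP1 PH domain and streptavidin-allophycocyanin after EDTA/PIP3 stop.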

[2] = target: DNA-PK(h) (Homo sapiens, UniProt P78527); assay: Evaluation of inhibitory activity against DNA-PK (HTRF kinase assay, GST-cMyc-p53 substrate); assay type: biochemical; settings: for inhibition at 0.01 µM: compound concentration 0.01 μM, read-out: EXP_VALUE(% Inhibition) DNA-PK(h) 0.01 μM; for inhibition at 0.1 µM: compound concentration 0.1 μM, read-out: EXP_VALUE(% Inhibition) DNA-PK(h) 0.1 μM
Outline: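 p53 Ser15 phosphorylation by human DNA-PK was measured by time-resolved FRET ratio (665/620 nm ×10000) using Eu-labelled anti-phospho-Ser15 and d2 anti-GST antibodies. Substrate GST-cMyc-p53 at 50 μM; Mg/ATP-initiated, 30 min at room temperature, EDTA stop.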

Chain of PI3K-δ (PI3K(p1108/p857) (h)) (O00329 whole entry, the tested form may be a part): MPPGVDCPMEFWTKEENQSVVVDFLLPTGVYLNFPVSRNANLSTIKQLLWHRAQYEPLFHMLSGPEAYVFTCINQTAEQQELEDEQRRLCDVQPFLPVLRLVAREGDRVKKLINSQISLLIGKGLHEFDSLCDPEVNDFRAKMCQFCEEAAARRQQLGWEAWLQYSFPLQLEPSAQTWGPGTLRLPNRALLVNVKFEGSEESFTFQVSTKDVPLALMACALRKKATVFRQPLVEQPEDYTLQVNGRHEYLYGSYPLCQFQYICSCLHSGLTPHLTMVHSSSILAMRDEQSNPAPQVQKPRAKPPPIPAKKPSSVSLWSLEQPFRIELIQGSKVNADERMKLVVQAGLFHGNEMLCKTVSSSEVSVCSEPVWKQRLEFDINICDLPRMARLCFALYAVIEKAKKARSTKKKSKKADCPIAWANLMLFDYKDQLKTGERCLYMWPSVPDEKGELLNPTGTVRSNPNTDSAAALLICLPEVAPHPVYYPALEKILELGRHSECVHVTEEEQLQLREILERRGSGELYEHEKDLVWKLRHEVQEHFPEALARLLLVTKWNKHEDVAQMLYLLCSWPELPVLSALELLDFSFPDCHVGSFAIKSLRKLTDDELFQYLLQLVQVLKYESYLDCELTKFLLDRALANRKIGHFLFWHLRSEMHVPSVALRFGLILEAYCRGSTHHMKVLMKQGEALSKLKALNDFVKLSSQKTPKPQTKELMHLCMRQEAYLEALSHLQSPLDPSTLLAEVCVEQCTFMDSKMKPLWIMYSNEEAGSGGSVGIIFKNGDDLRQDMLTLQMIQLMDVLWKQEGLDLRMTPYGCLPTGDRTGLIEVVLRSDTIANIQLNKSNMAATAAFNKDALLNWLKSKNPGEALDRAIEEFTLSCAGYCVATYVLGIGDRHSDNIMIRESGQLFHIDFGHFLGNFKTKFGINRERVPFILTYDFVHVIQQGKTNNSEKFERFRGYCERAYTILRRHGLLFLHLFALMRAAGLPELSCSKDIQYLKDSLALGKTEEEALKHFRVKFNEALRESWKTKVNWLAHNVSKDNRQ
Chain of PI3K-δ (PI3K(p1108/p857) (h)) (P27986 whole entry partner, the tested form may be a part): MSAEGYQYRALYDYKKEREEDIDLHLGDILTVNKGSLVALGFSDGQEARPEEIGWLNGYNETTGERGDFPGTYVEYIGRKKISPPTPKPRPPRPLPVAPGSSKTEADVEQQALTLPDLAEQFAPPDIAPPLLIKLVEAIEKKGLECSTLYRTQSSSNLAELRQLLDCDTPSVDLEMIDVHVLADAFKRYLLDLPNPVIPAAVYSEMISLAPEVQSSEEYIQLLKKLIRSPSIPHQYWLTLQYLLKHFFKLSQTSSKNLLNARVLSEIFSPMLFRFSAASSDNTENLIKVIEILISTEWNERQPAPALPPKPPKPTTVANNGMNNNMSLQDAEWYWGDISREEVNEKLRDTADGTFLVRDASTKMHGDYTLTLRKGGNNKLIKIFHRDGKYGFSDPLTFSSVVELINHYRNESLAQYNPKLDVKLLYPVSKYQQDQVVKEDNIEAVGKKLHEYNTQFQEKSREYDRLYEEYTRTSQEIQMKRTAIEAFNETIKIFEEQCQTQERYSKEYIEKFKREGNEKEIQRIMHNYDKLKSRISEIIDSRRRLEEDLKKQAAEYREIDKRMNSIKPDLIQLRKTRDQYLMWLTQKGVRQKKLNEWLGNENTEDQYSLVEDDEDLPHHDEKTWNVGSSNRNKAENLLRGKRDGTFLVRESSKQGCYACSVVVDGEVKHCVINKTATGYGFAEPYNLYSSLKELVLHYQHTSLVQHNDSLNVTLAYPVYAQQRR

Row | SMILES | inhibition at 0.01 µM [1] [%] | inhibition at 0.1 µM [1] [%] | inhibition at 0.01 µM [2] [%] | inhibition at 0.1 µM [2] [%]
1 | C[C@H](Nc1ncnc2[nH]ccc(=O)c12)c1c(Cl)c2cccc(N3CCN(C)CC3)c2c(=O)n1-c1ccccc1 [Example 250, (S)-4-((1-(4-chloro-8-(4-methylpiperazin-1-yl)-1-oxo-2-phenyl-1,2-dihydroisoquinolin-3-yl)ethyl)amino)pyrido[2,3-d]pyrimidin-5(8H)-one] | 32 | 82 | 0 | 57
2 | C[C@H](Nc1ncnc2[nH]ccc(=O)c12)c1c(Cl)c2cccc(N3CCCC3)c2c(=O)n1-c1ccccc1 [Example 252, (S)-4-((1-(4-chloro-1-oxo-2-phenyl-8-(pyrrolidin-1-yl)-1,2-dihydroisoquinolin-3-yl)ethyl)amino)pyrido[2,3-d]pyrimidin-5(8H)-one] | 53 | 97 | 4 | 42
3 | C[C@H](Nc1ncnc2[nH]ccc(=O)c12)c1c(Cl)c2cccc(-c3ccc4c(c3)OCCO4)c2c(=O)n1-c1ccccc1 [Example 253, (S)-4-((1-(4-chloro-8-(2,3-dihydrobenzo[b][1,4]dioxin-6-yl)-1-oxo-2-phenyl-1,2-dihydroisoquinolin-3-yl)ethyl)amino)pyrido[2,3-d]pyrimidin-5(8H)-one] | 105 | 102 | 78 | 97
4 | C[C@H](Nc1ncnc2[nH]ccc(=O)c12)c1c(Cl)c2cccc(-c3ccc(-c4ccccc4)cc3)c2c(=O)n1-c1ccccc1 [Example 254, (S)-4-((1-(8-([1,1′-biphenyl]-4-yl)-4-chloro-1-oxo-2-phenyl-1,2-dihydroisoquinolin-3-yl)ethyl)amino)pyrido[2,3-d]pyrimidin-5(8H)-one] | 96 | 110 | 40 | 82
5 | Cc1ccc(-c2cccc3c(Cl)c([C@H](C)Nc4ncnc5[nH]ccc(=O)c45)n(-c4ccccc4)c(=O)c23)cc1 [Example 255, (S)-4-((1-(4-chloro-1-oxo-2-phenyl-8-(p-tolyl)-1,2-dihydroisoquinolin-3-yl)ethyl)amino)pyrido[2,3-d]pyrimidin-5(8H)-one] | 25.1 | 50.9 | 15.6 | 73.6
6 | Cc1ccc(-c2cccc3c(Cl)c([C@H](C)Nc4ncnc5[nH]ccc(=O)c45)n(-c4ccccc4)c(=O)c23)cn1 [Example 257, (S)-4-((1-(4-chloro-8-(6-methylpyridin-3-yl)-1-oxo-2-phenyl-1,2-dihydroisoquinolin-3-yl)ethyl)amino)pyrido[2,3-d]pyrimidin-5(8H)-one] | 68 | 98 | 75 | 98
7 | C[C@H](Nc1ncnc2[nH]ccc(=O)c12)c1cc2cccc(-c3ccc(N(C)C)nc3)c2c(=O)n1-c1ccccc1 [Example 264, (S)-4-((1-(8-(6-(dimethylamino)pyridin-3-yl)-1-oxo-2-phenyl-1,2-dihydroisoquinolin-3-yl)ethyl)amino)pyrido[2,3-d]pyrimidin-5(8H)-one] | 73 | 82 | 7 | 41
8 | C[C@H](Nc1ncnc2[nH]ccc(=O)c12)c1c(Cl)c2cccc(C#N)c2c(=O)n1-c1ccccc1 [Example 265, (S)-4-chloro-1-oxo-3-(1-((5-oxo-5,8-dihydropyrido[2,3-d]pyrimidin-4-yl)amino)ethyl)-2-phenyl-1,2-dihydroisoquinoline-8-carbonitrile] | 71 | 87 | 40 | 77
9 | CC(=O)c1cccc2c(Cl)c([C@H](C)Nc3ncnc4[nH]ccc(=O)c34)n(-c3ccccc3)c(=O)c12 [Example 267, (S)-4-((1-(8-acetyl-4-chloro-1-oxo-2-phenyl-1,2-dihydroisoquinolin-3-yl)ethyl)amino)pyrido[2,3-d]pyrimidin-5(8H)-one] | 92 | – | 63 | –

More lines, now with the values ahead:

Row | inhibition at 0.01 µM [1] [%] | inhibition at 0.1 µM [1] [%] | inhibition at 0.01 µM [2] [%] | inhibition at 0.1 µM [2] [%] | SMILES
10 | 65 | 109 | 6 | 60 | C[C@H](Nc1ncnc2[nH]ccc(=O)c12)c1c(Cl)c2cccc(N3CCOCC3)c2c(=O)n1-c1ccccc1 [Example 251, (S)-4-((1-(4-chloro-8-morpholino-1-oxo-2-phenyl-1,2-dihydroisoquinolin-3-yl)ethyl)amino)pyrido[2,3-d]pyrimidin-5(8H)-one]
11 | 75 | 100 | 44 | 77 | C[C@H](Nc1ncnc2[nH]ccc(=O)c12)c1c(Cl)c2cccc(-c3ccc(C(F)(F)F)cc3Cl)c2c(=O)n1-c1ccccc1 [Example 256, (S)-4-((1-(4-chloro-8-(2-chloro-4-(trifluoromethyl)phenyl)-1-oxo-2-phenyl-1,2-dihydroisoquinolin-3-yl)ethyl)amino)pyrido[2,3-d]pyrimidin-5(8H)-one]
12 | 86 | 101 | 13 | 12 | C[C@H](Nc1ncnc2[nH]ccc(=O)c12)c1c(Cl)c2cccc(-c3ccc[nH]3)c2c(=O)n1-c1ccccc1 [Example 258, (S)-4-((1-(4-chloro-1-oxo-2-phenyl-8-(1H-pyrrol-2-yl)-1,2-dihydroisoquinolin-3-yl)ethyl)amino)pyrido[2,3-d]pyrimidin-5(8H)-one]
13 | 108 | 116 | 50 | 86 | C[C@H](Nc1ncnc2[nH]ccc(=O)c12)c1c(Cl)c2cccc(-c3ccc(C#N)cc3)c2c(=O)n1-c1ccccc1 [Example 259, (S)-4-(4-chloro-1-oxo-3-(1-((5-oxo-5,8-dihydropyrido[2,3-d]pyrimidin-4-yl)amino)ethyl)-2-phenyl-1,2-dihydroisoquinolin-8-yl)benzonitrile]
14 | 77 | 89 | 6 | 52 | Cc1c[nH]c2ccc(-c3cccc4cc([C@H](C)Nc5ncnc6[nH]ccc(=O)c56)n(-c5ccccc5)c(=O)c34)cc12 [Example 263, (S)-4-((1-(8-(3-methyl-1H-indol-5-yl)-1-oxo-2-phenyl-1,2-dihydroisoquinolin-3-yl)ethyl)amino)pyrido[2,3-d]pyrimidin-5(8H)-one]
15 | 69 | 88 | -10 | 3 | C[C@H](Nc1ncnc2[nH]ccc(=O)c12)c1cc2cccc(C#N)c2c(=O)n1-c1ccccc1 [Example 266, (S)-1-oxo-3-(1-((5-oxo-5,8-dihydropyrido[2,3-d]pyrimidin-4-yl)amino)ethyl)-2-phenyl-1,2-dihydroisoquinoline-8-carbonitrile]
16 | 76 | – | 27 | – | CCCC(=O)c1cccc2c(Cl)c([C@H](C)Nc3ncnc4[nH]ccc(=O)c34)n(-c3ccccc3)c(=O)c12 [Example 268, (S)-4-((1-(8-butyryl-4-chloro-1-oxo-2-phenyl-1,2-dihydroisoquinolin-3-yl)ethyl)amino)pyrido[2,3-d]pyrimidin-5(8H)-one]
